Measurements reported in US5607926A, “Cephalosporin antibiotics” (Microcide Pharmaceuticals, Inc., priority 1995, dated 1997).
≈ marks a conversion by molar mass, not a printed value. Like-named read-outs stand apart in the source and are kept apart here.

Experiments:
[1] = tested on: S. aureus ATCC 29213; assay: In vitro antibacterial evaluation, MIC by agar dilution, S. aureus ATCC 29213; assay type: cell-based; settings: Staphylococcus aureus, ATCC29213
Procedure, shortened: (§1)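 Growth inhibition on Mueller-Hinton agar plates defined the MIC, the lowest compound level stopping visible growth after 16-20 hours at 35°-36° C. Compound was incorporated at two-fold steps from 128 μg/mL to ≤0.25 μg/mL, each tested twice, with about 10^4 cfu spotted per isolate.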

[2] = tested on: S. aureus ATCC 25923; assay: In vitro antibacterial evaluation, MIC by agar dilution, S. aureus ATCC 25923; assay type: cell-based
Procedure, shortened: as §1

[3] = tested on: S. epidermidis ATCC 31432; assay: In vitro antibacterial evaluation, MIC by agar dilution, S. epidermidis ATCC 31432; assay type: cell-based
Procedure, shortened: as §1

[4] = tested on: S. aureus Col8A (Meth^S)(lac^-); assay: In vitro antibacterial evaluation, MIC by agar dilution, S. aureus Col8A; assay type: cell-based
Procedure, shortened: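 Agar dilution per NCCLS (1991): two-fold dilutions from 128 μg/mL down to ≤0.25 μg/mL in Mueller-Hinton agar, each level in duplicate. Spots of about 10^4 cfu of log-phase culture; 16-20 h at 35°-36° C. MIC in μg/ml is the lowest concentration inhibiting growth.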

[5] = tested on: S. haemolyticus (Meth^R); assay: In vitro antibacterial evaluation, MIC by agar dilution, S. haemolyticus; assay type: cell-based
Procedure, shortened: as §1

[6] = tested on: E. faecium ATCC 35667; assay: In vitro antibacterial evaluation, MIC by agar dilution, E. faecium ATCC 35667; assay type: cell-based
Procedure, shortened: as §1

[7] = tested on: E. faecalis ATCC 29212; assay: In vitro antibacterial evaluation, MIC by agar dilution, E. faecalis ATCC 29212; assay type: cell-based; settings: E. faecalis ATCC 29212
Procedure, shortened: as §1

[8] = tested on: E. coli ATCC 25922; assay: In vitro antibacterial evaluation, MIC by agar dilution, E. coli ATCC 25922; assay type: cell-based
Procedure, shortened: as §1

[9] = tested on: P. aeruginosa ATCC 27853; assay: In vitro antibacterial evaluation, MIC by agar dilution, P. aeruginosa ATCC 27853; assay type: cell-based
Procedure, shortened: as §1

[10] = tested on: X. maltophilia ATCC 13637; assay: In vitro antibacterial evaluation, MIC by agar dilution, X. maltophilia ATCC 13637; assay type: cell-based; settings: Stenotrophomonas maltophilia, ATCC13637
Method: (§2) The compounds of the invention were evaluated against several β-lactamresistant bacteria strains by determining the minimum inhibitory concentration (MIC, μg/ml) of each compound with respect to each strain. The MIC, the lowest concentration of antibiotic which inhibits growth of the test organism, was determined by the agar dilution method.
(§3) To determine the MIC for bacterial isolates, the test compound was incorporated in a series of two-fold dilutions into liquified Mueller-Hinton agar. Upon solidification, a number of different bacterial strains were spot inoculated with a replicating device onto the agar surface. […] The procedures used in these studies have been standardized by the National Committee for Clinical Laboratory Standards (NCCLS), as per the NCCLS publication entitled METHODS FOR DILUTION ANTIMICROBIAL SUSCEPTIBILITY TESTS (1991), which is incorporated herein by reference.
(§4) Aliquots of antimicrobial agents were prepared in phosphate buffered saline (PBS) at pH 7.2. Tween 20 or DMSO was used as a solubilizing vehicle as needed. Standard methods of vortexing, sonicating and gentle heat were used to facilitate solubilizing the test agent. Typically, the concentration of the stock solution was 10× that of the highest drug concentration tested. A 1.28 mg/mL stock solution was used with a subsequent highest working concentration of 128 μg/mL. Serial two-fold dilutions were done through ≤0.25 μg/mL. Each drug level was tested in duplicate. Two-fold drug dilutions were done in sterile 50 mL tubes with a final drug volume of 5 mL. Upon the addition of 45 mL of molten agar, a 10-fold dilution resulted. Two, 25 mL. plates were then poured into 15×150 mm square Petri plates with grids and allowed to harden.
(§5) A control plate with a reference drug, either cefotaxime, vancomycin or imipenem, was used as the positive growth control. Stock concentrations of reference antibiotics were prepared and frozen at -80° C. Upon preparation, the control plates were sealed and stored in the refrigerator for up to 1 week prior to use; however, imipenem control plates had to be prepared just prior to use. All test plates were used within 24 hours of preparation.
(§6) Satisfactory results were obtained where the inoculum contained about 10^4 colony forming units (cfu) ±0.5 logs. Starting with pure cultures of the test isolates on agar plates, a few isolated colonies were transferred to a tube of nutrient broth and allowed to grow 4-6 hours at 35°-36° C. to reach log-phase growth. Dropwise addition of the broth culture to PBS was done to match a 0.5 McFarland turbidity standard equal to 10^8 cfu/mL. This was further diluted ten-fold in PBS to reach a working inoculum concentration of 10^7 cfu/mL. When 1 μL of the working inoculum was applied to the agar surface a concentration of about 10^4 cfu per spot was obtained.
(§7) Disposable sterile 1 μL loops were used to inoculate test plates, with each isolate in a designated grid on the agar plate. An alternate method of inoculation involved the use of a replica plater, a device with 48 steel pins allowing the simultaneous inoculation of multiple isolates. After the spots had dried, the plates were incubated at 35°-36° C. for 16-20 hours. Endpoints were assessed as the minimum inhibitory concentration (MIC) of antimicrobial agent.

[11] = tested on: methicillinsusceptible S. aureus strain ATCC 13709; assay: In vivo antibacterial evaluation, murine model for lethal bacteremic peritonitis; set-up: species or system S. aureus in female Swiss-Webster mice; settings: Staphylococcus aureus, ATCC13709, sc, 72 h, two equal SC doses at challenge and 2 hours later, mice, probit, read-out: ED50
Procedure, shortened: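 Female Swiss-Webster mice received IP an LD100 bacterial titer in 7% hog gastric mucin, then two equal subcutaneous doses (at challenge and 2 h later) of two-fold increments of drug, range 0.01–512 mg/kg. Survival scored at 72 h; PD50 (total mg/kg) by probit, groups of 10.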

[12] = tested on: methicillinsusceptible S. aureus strain ATCC 13709; assay: Challenge strain MIC; assay type: cell-based; settings: Staphylococcus aureus, ATCC13709, S. aureus ATCC 13709; read-out: Challenge str MIC
Procedure, shortened: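 MIC was found by agar dilution to NCCLS standards: two-fold compound dilutions from 128 μg/mL through ≤0.25 μg/mL in Mueller-Hinton agar, each level in duplicate. Log-phase inocula of about 10^4 cfu per spot were applied. Plates were incubated 16-20 h at 35°-36° C, and the MIC was the lowest concentration inhibiting growth.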

[13] = tested on: S. aureus Col (Meth^R)(lac^-); assay: In vitro antibacterial evaluation, MIC by agar dilution, S. aureus Col; assay type: cell-based
Method: as §2, §3, §4, §5, §6, §7
The novel agents of this invention are notable for their enhanced activity against S. aureus Col and Enterococci (E. faecium and E. faecalis). […]

[14] = tested on: S. aureus 76 (Meth^R)(lac^+); assay: In vitro antibacterial evaluation, MIC by agar dilution, S. aureus 76; assay type: cell-based
Procedure, shortened: as §1

[15] = S. aureus ATCC 29213, read-out: MIC
[16] = Staphylococcus aureus, ATCC25923, S. aureus ATCC 25923, read-out: MIC
[17] = Staphylococcus epidermidis, ATCC31432, S. epidermidis ATCC 31432, read-out: MIC
[18] = Staphylococcus haemolyticus, read-out: MIC
[19] = Enterococcus faecium, ATCC35667, read-out: MIC
[20] = Enterococcus faecalis, ATCC29212, read-out: MIC
[21] = Escherichia coli, ATCC25922, read-out: MIC
[22] = Pseudomonas aeruginosa, ATCC27853, read-out: MIC
[23] = Staphylococcus aureus, ATCC25923
[24] = Staphylococcus epidermidis, ATCC31432
[25] = Staphylococcus aureus, read-out: MIC

| Molecule | MIC [1, 15] [mg/L] | MIC [2, 16] [mg/L] | MIC [3, 17] [mg/L] | MIC ([4]; Staphylococcus aureus) [mg/L] | MIC [5, 18] [mg/L] | MIC [6, 19] [mg/L] | MIC [7, 20] [mg/L] | MIC [8, 21] [mg/L] | MIC [9, 22] [mg/L] | MIC [10] [mg/L] | MIC [14, 25] [mg/L] | further results |
| --- | --- | --- | --- | --- | --- | --- | --- | --- | --- | --- | --- | --- |
| CO/N=C(\C(=O)N[C@@H]1C(=O)N2C(C(=O)O)=C(COC(C)=O)CS[C@H]12)c1csc(N)n1 [Cefotaxime, (7R)-3-Acetoxymethyl-7-[(Z)-2-(aminothiazol-4-yl)-2-(methoxyimino)acetamido]-3-cephem-4-carboxylic acid, reference compound] | 2 (≈ 4.39 µM) | < 1 | 2 (≈ 4.39 µM) | 2 (≈ 4.39 µM) | > 32 | > 32 | > 32 | < 1 | 8 to 16 (≈ 17.6 to 35.1 µM) | > 32 | – | ED50 [11]: 7.47 mg/kg; MIC [12]: 2 mg/L (≈ 4.39 µM) |
| O=C(Cc1ccccc1)N[C@@H]1C(=O)N2C(C(=O)O)=C(Sc3ccccc3I)CS[C@H]12 [Cmpd 6, (7R)-7-[(Phenylacetyl)amino]-3-(o-iodophenylthio)-3-cephem-4-carboxylic acid] | – | – | – | < 0.015 | 4 (≈ 7.24 µM) | 0.5 (≈ 0.905 µM) | 0.5 (≈ 0.905 µM) | > 32 | > 32 | > 32 | 1 (≈ 1.81 µM) | MIC [1]: < 0.015 mg/L; MIC [2, 23]: < 0.015 mg/L; MIC [3, 24]: < 0.015 mg/L; activity against S. aureus Col, S. aureus Col 8A and Enterococci ([13]; S. aureus Col, S. aureus Col 8A, Enterococci): broad activity against both S. aureus Col and S. aureus Col 8A, as well as Enterococci |
| O=C(Cc1ccccc1)N[C@@H]1C(=O)N2C(C(=O)O)=C(Sc3ccc(-c4ccccc4)cc3F)CS[C@H]12 [Cmpd 13, (7R)-7-[(Phenylacetyl)amino]-3-(2-fluoro-4-biphenylthio)-3-cephem-4-carboxylic acid] | 0.06 (≈ 0.115 µM) | < 0.015 | 0.03 (≈ 0.0576 µM) | 0.06 (≈ 0.115 µM) | 16 (≈ 30.7 µM) | 4 (≈ 7.68 µM) | 2 (≈ 3.84 µM) | > 32 | > 32 | > 32 | 16 (≈ 30.7 µM) | – |
| O=C(Cc1ccccc1)N[C@@H]1C(=O)N2C(C(=O)O)=C(Sc3ccc(Br)cc3-c3ccccc3)CS[C@H]12 [Cmpd 14, (7R)-7-[(Phenylacetyl)amino]-3-(4-bromo-2-biphenylthio)-3-cephem-4-carboxylic acid] | – | 0.06 (≈ 0.103 µM) | 0.06 (≈ 0.103 µM) | 0.25 (≈ 0.43 µM) | 8 (≈ 13.8 µM) | 1 (≈ 1.72 µM) | 2 (≈ 3.44 µM) | > 32 | > 32 | > 32 | 4 (≈ 6.88 µM) | MIC [1]: 0.25 mg/L (≈ 0.43 µM) |
| O=C(Cc1ccccc1)N[C@@H]1C(=O)N2C(C(=O)O)=C(Sc3ccccc3Cl)CS[C@H]12 [Cmpd 15, (7R)-7-[(Phenylacetyl)amino]-3-(o-chlorophenylthio)-3-cephem-4-carboxylic acid] | 0.06 (≈ 0.13 µM) | 0.03 (≈ 0.0651 µM) | 0.03 (≈ 0.0651 µM) | 0.06 (≈ 0.13 µM) | 16 (≈ 34.7 µM) | 2 (≈ 4.34 µM) | 2 (≈ 4.34 µM) | > 32 | > 32 | > 32 | 8 (≈ 17.4 µM) | – |
| N=C(N)SCc1ccc(SC2=C(C(=O)O)N3C(=O)[C@@H](NC(=O)Cc4ccccc4)[C@H]3SC2)c(I)c1 [Cmpd 58, (7R)-7-[(Phenylacetyl)amino]-3-(4-isothiouroniummethyl-2-iodophenylthio)-3-cephem-4-carboxylic acid] | – | – | – | < 0.25 | 4 (≈ 6.24 µM) | 0.5 (≈ 0.781 µM) | 1 (≈ 1.56 µM) | 32 (≈ 50 µM) | > 32 | – | 4 (≈ 6.24 µM) | MIC [2, 23]: < 0.25 mg/L; MIC [3, 24]: < 0.25 mg/L; MIC ([13]; Staphylococcus aureus): < 0.25 mg/L |
| (7R)-7-[(Phenylacetyl)amino]-3-(2,3-dihydro-2,2-dimethylbenzofuran-7-yl)-3-cephem-4-carboxylic acid [Cmpd 55] | – | – | – | – | – | – | – | – | – | – | – | MIC ([2]; S. aureus ATCC 25923): < 0.25 mg/L; MIC ([3]; S. epidermidis ATCC 31432): < 0.25 mg/L; MIC ([13]; S. aureus Col (Meth^R)(lac^-), high-level PBP2a producer): 4 mg/L; MIC [14]: 16 mg/L; MIC ([4]; S. aureus Col8A (Meth^S)(lac^-), lacks PBP2a): < 0.25 mg/L; MIC [5]: 16 mg/L; MIC [6]: 8 mg/L; MIC [7]: 16 mg/L; MIC [8]: > 32 mg/L; MIC [9]: > 32 mg/L |
